Data: patent US6949648B2, “Condensed pyrazole derivatives, process for producing the same and use thereof” (Takeda Pharmaceutical Company Limited, priority 2000, dated 2005)
Counter-ions that a name gives are not always drawn. Like-named read-outs stand apart in the source and are kept apart here. Marks after values point to notes of the source that are not given here.

Tests used:
IL-4 = assay: Effect on cytokine production of mice sensitized by controlled-release ovalbumin: IL-4; type: in vivo, BALB/c mouse; settings: 30 mg/kg b.w. orally, 5 days a week during 9-day period, splenic cells incubated with OVA 3 days, ELISA; for inhibition in vivo at 30 mg/kg: Mus musculus, po, read-out: Suppression Rate (%) IL-4
Description: (§1) Effect on Cytokine Production of Mice Sensitized by Controlled-Release Ovalbumin
(§2) An osmotic pump (Alza Co., USA) containing a solution (100 μL) containing 1.0 mg of ovalbumin (OVA; albumin chicken egg grade III, Sigma Chemical) was implanted in the back of a male BALB/c mouse (Charles River) of 8 weeks old under ether anesthesia, and the mouse is sensitized by the controlled-release ovalbumin. After 11 days from implantation of the pump, a sample of spleen was removed, and a splenic cell suspension was prepared by the use of the RPMI-1640 medium (Bio Whittaker Inc., USA) containing inactivated fetal bovine serum (10% V/V; Bio Whittaker Inc., USA), 2-mercaptoethanol (50 μM), and gentamicin (20 μg/ml). A sample compound (30 mg/kg b.w.) was suspended in 0.4 ml of methylcellulose (MC), and the suspension was orally administered, 5 days a week during the 9-day period from the initiation day of sensitization to the day before the day of blood sample collection (1 Group, n=10). The splenic cell suspension was adjusted to a concentration of 5.0×10^6 cells/ml, and the resulting suspension (100 μl) was pipetted onto a 96 well U-bottomed plate, each of the wells containing a solution (100 μl/well) of 400 μg/ml OVA, and the plate was incubated at 37° C. in a 5% carbon dioxide gas incubator for 3 days. The cultured media were centrifuged at 200×g for 5 minutes, and the supernatants were collected and the production of IL-4, IL-5 and IFN-γ in each of the supernatants was determined by the ELISA method [Mouse IL-4 Bulk Kit (PerSeptive Biosystems), Mouse IL-5 Bulk Kit (PerSeptive Biosystems), and Mouse IFN-γ Bulk Kit (PerSeptive Biosystems)].

IL-5 = assay: Effect on cytokine production of mice sensitized by controlled-release ovalbumin: IL-5; type: in vivo, BALB/c mouse; settings: 30 mg/kg b.w. orally, 5 days a week during 9-day period, splenic cells incubated with OVA 3 days, ELISA; for inhibition in vivo at 30 mg/kg: Mus musculus, po, read-out: Suppression Rate (%) IL-5
Description: as §1, §2

IFN-γ = assay: Effect on cytokine production of mice sensitized by controlled-release ovalbumin: IFN-γ; type: in vivo, BALB/c mouse; settings: 30 mg/kg b.w. orally, 5 days a week during 9-day period, splenic cells incubated with OVA 3 days, ELISA; for inhibition in vivo at 30 mg/kg: Mus musculus, po, read-out: Suppression Rate (%) IFN-γ
Description: as §1, §2

OVA-specific IgE = assay: Effect on antibody production of ovalbumin-sensitized mice: IgE; type: in vivo, BALB/c mouse; settings: 30 mg/kg b.w. orally, 5 days a week during 9-day period, serum 11 days after first sensitization, ELISA; for inhibition in vivo at 30 mg/kg: Mus musculus, po, 264 h, read-out: Suppression Rate (%) IgE
Description: (§3) Effect on Antibody Production of Mice Sensitized by Controlled-Release Ovalbumin
(§4) A male BALB/c mouse (Charles River) of 7 weeks old was sensitized by intraabdominal administration, twice at an interval of a week, of a mixture of 10 μg/mouse of ovalbumin (OVA; albumin chicken egg grade III; Sigma Chemical) and 1 mg of aluminum hydroxide hydrate gel suspension (Alum; LSL Co. LTD.). After 11 days from the first sensitization, blood was collected from beneath eye under ether anesthesia, and the amount of OVA-specific IgE, IgG1 (Th2 type) and IgG2a (Th1 type) antibodies in the serum were determined by the ELISA method. A sample compound (30 mg/kg b.w.) was suspended in 0.4 ml of methylcellulose (MC), and the suspension was orally administered, 5 days a week during the 9-day period from the initiation day of sensitization to the day before the day of blood sample collection (1 Group, n=8 to 10).

[1] = system: OVA-specific IgG2a (Th1 type); assay: Effect on antibody production of ovalbumin-sensitized mice: IgG2a; type: in vivo, BALB/c mouse; settings: 30 mg/kg b.w. orally, 5 days a week during 9-day period, serum 11 days after first sensitization, ELISA; for inhibition in vivo at 30 mg/kg: Mus musculus, po, 264 h, read-out: Suppression Rate (%) IgG2a
Description: as §3, §4

[2] = system: carrageenin edema of right hind limb plantar; assay: Anti-inflammatory activity, carrageenin edema method; type: in vivo, SD-rats; settings: po, 10 mg/kg orally
Description: Anti-Inflammatory Activity
Male SD-rats (6 weeks old, CLEA Japan) were used (1 group, n=6). The Carrageenin edema method was performed according to the method of Winter et. al., (Proc. Soc. Exp. Biol. Med., vol. 111, p. 544-547, 1962). After the volume of right hind limb plantar of the rat was determined, a sample was orally administered (1.0 mL, b.w.), and immediately water was orally administered in an amount of 5 mL/rat. Meanwhile, only the solvent of the sample was orally administered to rats in control. After 1 hour, a solution of 1% carrageenin in saline (0.05 mL) was injected into the right hind limb plantar subcutaneously to induce edema. After 2 and 3 hours later from the injection, volumes of the right hind limb plantar were determined. The repression rate (%) of the sample was calculated by comparing the difference of the volumes of the plantar before the carrageenin shot and 2 and 3 hours after the shot between the sample groups and the control groups.

[3] = system: acetic acid induced rising and stretching; assay: Analgesic activity, acetic acid rising method; type: in vivo, ICR-mice; settings: po, 20 min; 10 mg/kg orally, 30 minutes before 0.6% acetic acid i.p.; number of rising and stretching in 20 minutes; read-out: Repression rate (%) Dosage 10 mg/kg
Description: Analgesic Activity Acetic Acid Rising Method Male ICR-mice (5 weeks old, CLEA Japan) were used (1 group, n=10), and a sample was orally administered (0.2 mL/10 g, b.w.). After 30 minutes, 0.6% acetic acid solution was injected to mice intraperitoneally (0.1 mL/10 g, b.w.), and the mice were immediately transferred into an observation cage made of a transparent acrylic resin. The number of rising and stretching during the following period of 20 minutes was counted. The repression rate (%) was calculated by comparing the average numbers between the sample groups and the control groups.

Cc1cccc2c(=O)c3c(C)nn(-c4ccccn4)c3[nH]c12 [Example 1-47, 3,8-Dimethyl-1-(2-pyridinyl)-1,9-dihydro-4H-pyrazolo[3,4-b]quinolin-4-one]
inhibition in vivo at 30 mg/kg (IL-4): 49.9% | inhibition in vivo at 30 mg/kg (IL-5): 61.1% | inhibition in vivo at 30 mg/kg (IFN-γ): 31.8% | inhibition in vivo at 30 mg/kg (OVA-specific IgE): 4.9% | inhibition in vivo at 30 mg/kg [1]: -17.1%

Cc1cccc2nc3c(c(C)nn3-c3ccccn3)c(N)c12 [Example 1-44, 3,5-Dimethyl-1-(2-pyridinyl)-1H-pyrazolo[3,4-b]quinolin-4-ylamine]
inhibition in vivo at 30 mg/kg (IL-4): 68.2% | inhibition in vivo at 30 mg/kg (IL-5): 3.1% | inhibition in vivo at 30 mg/kg (IFN-γ): 36.3% | melting point: 252 to 255 °C

CCOc1cccc(-n2nc(C)c3c(Cl)c4c(C)cccc4nc32)n1 [Example 1-57, 4-Chloro-3,5-dimethyl-1-(6-ethoxy-2-pyridinyl)-1H-pyrazolo[3,4-b]quinoline]
inhibition in vivo at 30 mg/kg (IL-4): 43.2% | inhibition in vivo at 30 mg/kg (IL-5): 53.9% | inhibition in vivo at 30 mg/kg (IFN-γ): 36.7% | inhibition in vivo at 30 mg/kg (OVA-specific IgE): 23.6% | inhibition in vivo at 30 mg/kg [1]: -55.1%

Cc1nn(Cc2ccccn2)c2[nH]c3ccccc3c(=O)c12 [Example 1-69, 3-Methyl-1-(2-pyridinylmethyl)-1,9-dihydro-4H-pyrazolo[3,4-b]quinolin-4-one]
inhibition in vivo at 30 mg/kg (IL-4): 19.4% | inhibition in vivo at 30 mg/kg (IL-5): 50% | inhibition in vivo at 30 mg/kg (IFN-γ): 8.3%

Cc1cccnc1-n1nc(C)c2c(Cl)c3ccccc3nc21 [Example 1-56, 4-Chloro-3-methyl-1-(3-methyl-2-pyridinyl)-1H-pyrazolo[3,4-b]quinoline]
inhibition in vivo at 30 mg/kg (IL-4): 23.7% | inhibition in vivo at 30 mg/kg (IL-5): 12.2% | inhibition in vivo at 30 mg/kg (IFN-γ): 12.2%

CSc1ccc2[nH]c3c(c(C)nn3-c3ccccn3)c(=O)c2c1 [Example 1-50, 3-Methyl-6-(methylsulfanyl)-1-(2-pyridinyl)-1,9-dihydro-4H-pyrazolo[3,4-b]quinolin-4-one]
inhibition in vivo at 30 mg/kg (IL-4): 45.5% | inhibition in vivo at 30 mg/kg (IL-5): 60.2% | inhibition in vivo at 30 mg/kg (IFN-γ): 11.1% | inhibition in vivo at 30 mg/kg (OVA-specific IgE): 22% | inhibition in vivo at 30 mg/kg [1]: 19.5% | melting point: 182 to 185 °C

Cc1nn(-c2cccnc2)c2[nH]c3ccccc3c(=O)c12 [Example 1-64, 3-Methyl-1-(3-pyridinyl)-1,9-dihydro-4H-pyrazolo[3,4-b]quinolin-4-one]
inhibition in vivo at 30 mg/kg (IL-4): 49.1% | inhibition in vivo at 30 mg/kg (IL-5): 39.9% | inhibition in vivo at 30 mg/kg (IFN-γ): -6.8%

CCOc1cccc(-n2nc(C)c3c(N)c4cccc(C)c4nc32)n1 [Example 1-60]
Suppression Rate (%) IL-4 (IL-4): 56.7% | Suppression Rate (%) IL-5 (IL-5): 59.3% | Suppression Rate (%) IFN-γ (IFN-γ): 23.4% | Suppression Rate (%) IgE (OVA-specific IgE): 54.9** % | Suppression Rate (%) IgG2a [1]: 47.8%

CCOc1cccc(-n2nc(C)c3c(=O)c4cccc(C)c4[nH]c32)n1 [Example 1-61, 3,8-Dimethyl-1-(6-ethoxy-2-pyridinyl)-1,9-dihydro-4H-pyrazolo[3,4-b]quinolin-4-one]
inhibition in vivo at 30 mg/kg (IL-4): 16% | inhibition in vivo at 30 mg/kg (IL-5): 26.1% | inhibition in vivo at 30 mg/kg (IFN-γ): -8.7%

Cc1cccc2c(N)c3c(C)nn(-c4ccccn4)c3nc12 [Example 1-46, 3,8-Dimethyl-1-(2-pyridinyl)-1H-pyrazolo[3,4-b]quinolin-4-ylamine hydrochloride]
inhibition in vivo at 30 mg/kg (IL-4): 80.4% | inhibition in vivo at 30 mg/kg (IL-5): 5.2% | inhibition in vivo at 30 mg/kg (IFN-γ): -132%

Cc1cccc2c(N)c3c(C)nn(-c4ccc5ccccc5n4)c3nc12 [Example 1-66, 3,8-Dimethyl-1-(2-quinolinyl)-1H-pyrazolo[3,4-b]quinolin-4-ylamine]
inhibition in vivo at 30 mg/kg (IL-4): 27.1% | inhibition in vivo at 30 mg/kg (IL-5): 34.3% | inhibition in vivo at 30 mg/kg (IFN-γ): 50%

Cc1cccnc1-n1nc(C)c2c(N)c3cccc(C)c3nc21 [Example 1-62, 3,8-Dimethyl-1-(3-methyl-2-pyridinyl)-1H-pyrazolo[3,4-b]quinolin-4-ylamine]
inhibition in vivo at 30 mg/kg (IL-4): 19.4% | inhibition in vivo at 30 mg/kg (IL-5): 4.8% | inhibition in vivo at 30 mg/kg (IFN-γ): -13.8%

Cc1nn(-c2ccccn2)c2nc3ccccc3c(N)c12.Cl [Example 1-36, 3-Methyl-1-(2-pyridinyl)-1H-pyrazolo[3,4-b]quinolin-4-ylamine hydrochloride]
inhibition in vivo at 30 mg/kg (IL-4): 99.8% | inhibition in vivo at 30 mg/kg (IL-5): 61.5% | inhibition in vivo at 30 mg/kg (IFN-γ): -131% | inhibition in vivo at 30 mg/kg (OVA-specific IgE): 64.2% | inhibition in vivo at 30 mg/kg [1]: 23.4% | melting point: 268 to 271 °C

Cc1nn(-c2ccccn2)c2[nH]c3ccc(Cl)cc3c(=O)c12 [Example 1-51, 6-Chloro-3-methyl-1-(2-pyridinyl)-1,9-dihydro-4H-pyrazolo[3,4-b]quinolin-4-one]
inhibition in vivo at 30 mg/kg (IL-4): 31.9% | inhibition in vivo at 30 mg/kg (IL-5): 53.7% | inhibition in vivo at 30 mg/kg (IFN-γ): -11.2%

COc1cccc(-n2nc(C)c3c(N)c4cccc(C)c4nc32)n1 [Example 1-59, 3,8-Dimethyl-1-(6-methoxy-2-pyridinyl)-1H-pyrazolo[3,4-b]quinolin-4-ylamine]
inhibition in vivo at 30 mg/kg (IL-4): 66.5% | inhibition in vivo at 30 mg/kg (IL-5): 27.8% | inhibition in vivo at 30 mg/kg (IFN-γ): -124% | inhibition in vivo at 30 mg/kg (OVA-specific IgE): 60.7% | inhibition in vivo at 30 mg/kg [1]: 46.3%

Cc1nn(-c2ccccn2)c2[nH]c3cc(F)c(Cl)cc3c(=O)c12 [Example 2-99, 6-Chloro-7-fluoro-3-methyl-1-(2-pyridinyl)-1,9-dihydro-4H-pyrazolo[3,4-b]quinolin-4-one]
inhibition in vivo at 10 mg/kg ([2]; 2 hr after carrageenin injection, read-out: Repression rate (%) Dosage 10 mg/kg 2 hr later): 46% | inhibition in vivo at 10 mg/kg ([2]; 3 hr after carrageenin injection, read-out: Repression rate (%) Dosage 10 mg/kg 3 hr later): 41% | inhibition in vivo at 10 mg/kg [3]: 39% | melting point: 284 °C
